According to ChEMBL document CHEMBL5678804 (Cancer Cell, 2011):
Active and inactive are the calls of the source. No cut-off for these calls is given here.

How the values were obtained:
[1] = biological target: Platelet-derived growth factor receptor alpha (Homo sapiens, UniProt P16234); experiment: Inhibition of human wild type PDGFR alpha using Poly(Ala,Glu,Lys,Tyr)6:2:5:1 as substrate preincubated for 2 hrs followed by ATP addition and measured every 2 mins for […] by spectrophotometric analysis
[2] = biological target: STE20-like serine/threonine-protein kinase (Homo sapiens, UniProt Q9H2G2); experiment: Inhibition of human wild type SLK using RB-S6P as substrate preincubated for 2 hrs followed by ATP addition and measured every 2 mins for […] by spectrophotometric analysis
[3] = biological target: Dual specificity protein kinase TTK (Homo sapiens, UniProt P33981); experiment: Inhibition of human wild type TTK using RBER-CHKtide as substrate preincubated for 2 hrs followed by ATP addition and measured every 2 mins for […] by spectrophotometric analysis
Sequence of Dual specificity protein kinase TTK (P33981 whole entry): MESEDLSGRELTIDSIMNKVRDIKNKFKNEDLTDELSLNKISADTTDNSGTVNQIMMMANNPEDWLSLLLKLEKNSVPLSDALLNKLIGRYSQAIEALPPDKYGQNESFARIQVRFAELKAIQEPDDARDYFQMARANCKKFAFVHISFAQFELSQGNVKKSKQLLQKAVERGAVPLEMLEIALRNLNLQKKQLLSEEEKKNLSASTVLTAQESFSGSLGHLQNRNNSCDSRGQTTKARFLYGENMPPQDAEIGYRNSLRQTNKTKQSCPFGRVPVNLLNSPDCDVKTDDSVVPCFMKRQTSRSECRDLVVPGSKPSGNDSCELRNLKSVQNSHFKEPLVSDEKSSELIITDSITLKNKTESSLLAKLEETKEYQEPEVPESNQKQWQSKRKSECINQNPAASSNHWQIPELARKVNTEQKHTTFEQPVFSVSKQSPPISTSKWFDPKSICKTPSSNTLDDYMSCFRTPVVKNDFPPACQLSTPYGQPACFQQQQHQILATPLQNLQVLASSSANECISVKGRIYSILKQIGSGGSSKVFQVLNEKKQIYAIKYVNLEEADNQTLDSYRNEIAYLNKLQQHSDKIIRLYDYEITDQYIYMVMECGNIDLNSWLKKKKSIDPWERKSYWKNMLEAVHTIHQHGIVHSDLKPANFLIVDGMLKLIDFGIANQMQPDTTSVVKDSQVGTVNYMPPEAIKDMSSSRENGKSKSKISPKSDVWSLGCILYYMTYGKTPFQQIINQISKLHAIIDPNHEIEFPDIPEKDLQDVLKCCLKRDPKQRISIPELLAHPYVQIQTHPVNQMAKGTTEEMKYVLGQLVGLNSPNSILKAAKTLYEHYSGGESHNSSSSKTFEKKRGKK

[4] = biological target: Serine/threonine-protein kinase 17A (Homo sapiens, UniProt Q9UEE5); experiment: Inhibition of human wild type DRAK1 using RB-CTF as substrate preincubated for 2 hrs followed by ATP addition and measured every 2 mins for […] by spectrophotometric analysis
Sequence of Serine/threonine-protein kinase 17A (Q9UEE5 whole entry): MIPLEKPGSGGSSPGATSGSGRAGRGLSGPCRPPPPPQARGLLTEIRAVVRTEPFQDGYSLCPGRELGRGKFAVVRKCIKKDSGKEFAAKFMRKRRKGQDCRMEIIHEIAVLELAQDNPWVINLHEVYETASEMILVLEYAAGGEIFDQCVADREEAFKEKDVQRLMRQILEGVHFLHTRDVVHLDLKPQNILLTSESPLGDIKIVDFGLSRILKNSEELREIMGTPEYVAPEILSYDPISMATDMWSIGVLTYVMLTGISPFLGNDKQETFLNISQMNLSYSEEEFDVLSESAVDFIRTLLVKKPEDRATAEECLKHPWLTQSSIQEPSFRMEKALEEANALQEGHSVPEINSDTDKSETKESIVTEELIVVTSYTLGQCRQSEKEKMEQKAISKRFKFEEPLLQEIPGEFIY

[5] = biological target: Mitogen-activated protein kinase 1 (Homo sapiens, UniProt P28482); experiment: Inhibition of human wild type ERK2 using RBER-CHKtide as substrate preincubated for 2 hrs followed by ATP addition and measured every 2 mins for […] by spectrophotometric analysis
[6] = biological target: Glycogen synthase kinase-3 alpha (Homo sapiens, UniProt P49840); experiment: Inhibition of human wild type GSK3 alpha using SUPT5 754to 837 as substrate preincubated for 2 hrs followed by ATP addition and measured every 2 mins for […] by spectrophotometric analysis
[7] = biological target: Insulin-like growth factor 1 receptor (Homo sapiens, UniProt P08069); experiment: Inhibition of human wild type IGF1R using PolyEY as substrate preincubated for 2 hrs followed by ATP addition and measured every 2 mins for […] by spectrophotometric analysis
[8] = biological target: Insulin receptor (Homo sapiens, UniProt P06213); experiment: Inhibition of human wild type IR using Poly(Ala,Glu,Lys,Tyr)6:2:5:1 as substrate preincubated for 2 hrs followed by ATP addition and measured every 2 mins for […] by spectrophotometric analysis
Sequence of Insulin receptor (P06213 28-758 limits assumed): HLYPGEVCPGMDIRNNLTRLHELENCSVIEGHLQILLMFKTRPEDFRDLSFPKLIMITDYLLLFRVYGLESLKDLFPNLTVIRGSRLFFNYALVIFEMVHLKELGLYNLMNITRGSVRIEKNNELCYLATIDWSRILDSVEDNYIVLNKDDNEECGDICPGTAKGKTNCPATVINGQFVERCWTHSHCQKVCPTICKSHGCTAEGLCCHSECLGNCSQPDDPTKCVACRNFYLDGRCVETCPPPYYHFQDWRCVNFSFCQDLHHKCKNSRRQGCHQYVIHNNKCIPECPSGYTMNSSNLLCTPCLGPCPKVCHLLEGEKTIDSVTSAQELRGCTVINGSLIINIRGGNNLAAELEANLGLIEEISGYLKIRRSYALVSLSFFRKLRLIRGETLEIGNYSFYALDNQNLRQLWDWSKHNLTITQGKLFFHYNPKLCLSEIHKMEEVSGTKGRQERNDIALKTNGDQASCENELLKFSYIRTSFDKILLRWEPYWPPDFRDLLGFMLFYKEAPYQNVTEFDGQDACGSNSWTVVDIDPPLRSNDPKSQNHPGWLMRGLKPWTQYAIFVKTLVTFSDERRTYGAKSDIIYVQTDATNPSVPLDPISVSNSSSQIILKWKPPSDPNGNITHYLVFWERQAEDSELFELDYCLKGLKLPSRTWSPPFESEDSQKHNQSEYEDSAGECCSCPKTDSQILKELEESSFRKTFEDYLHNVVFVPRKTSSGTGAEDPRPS
Sequence of Insulin receptor (P06213 763-1382 limits assumed): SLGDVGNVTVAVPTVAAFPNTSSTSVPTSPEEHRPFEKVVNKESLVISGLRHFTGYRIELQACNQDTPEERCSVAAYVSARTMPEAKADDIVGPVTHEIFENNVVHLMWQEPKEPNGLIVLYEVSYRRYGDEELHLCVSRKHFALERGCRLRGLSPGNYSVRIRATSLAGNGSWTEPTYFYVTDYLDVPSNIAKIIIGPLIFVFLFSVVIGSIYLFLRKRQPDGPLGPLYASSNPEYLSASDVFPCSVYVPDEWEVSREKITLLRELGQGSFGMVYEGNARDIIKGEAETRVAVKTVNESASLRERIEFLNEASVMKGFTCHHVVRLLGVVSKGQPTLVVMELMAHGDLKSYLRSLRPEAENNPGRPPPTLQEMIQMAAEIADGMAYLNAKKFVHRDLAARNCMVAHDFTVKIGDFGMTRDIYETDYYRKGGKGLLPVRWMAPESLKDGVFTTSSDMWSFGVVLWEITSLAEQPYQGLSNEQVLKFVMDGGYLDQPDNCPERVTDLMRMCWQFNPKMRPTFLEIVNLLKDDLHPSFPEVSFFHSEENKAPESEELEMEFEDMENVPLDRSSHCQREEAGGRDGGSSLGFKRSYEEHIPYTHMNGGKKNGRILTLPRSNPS

[9] = biological target: Tyrosine-protein kinase JAK2 (Homo sapiens, UniProt O60674); experiment: Inhibition of human wild type JAK2 using Poly(Ala,Glu,Lys,Tyr)6:2:5:1 as substrate preincubated for 2 hrs followed by ATP addition and measured every 2 mins for […] by spectrophotometric analysis
Sequence of Tyrosine-protein kinase JAK2 (O60674 whole entry): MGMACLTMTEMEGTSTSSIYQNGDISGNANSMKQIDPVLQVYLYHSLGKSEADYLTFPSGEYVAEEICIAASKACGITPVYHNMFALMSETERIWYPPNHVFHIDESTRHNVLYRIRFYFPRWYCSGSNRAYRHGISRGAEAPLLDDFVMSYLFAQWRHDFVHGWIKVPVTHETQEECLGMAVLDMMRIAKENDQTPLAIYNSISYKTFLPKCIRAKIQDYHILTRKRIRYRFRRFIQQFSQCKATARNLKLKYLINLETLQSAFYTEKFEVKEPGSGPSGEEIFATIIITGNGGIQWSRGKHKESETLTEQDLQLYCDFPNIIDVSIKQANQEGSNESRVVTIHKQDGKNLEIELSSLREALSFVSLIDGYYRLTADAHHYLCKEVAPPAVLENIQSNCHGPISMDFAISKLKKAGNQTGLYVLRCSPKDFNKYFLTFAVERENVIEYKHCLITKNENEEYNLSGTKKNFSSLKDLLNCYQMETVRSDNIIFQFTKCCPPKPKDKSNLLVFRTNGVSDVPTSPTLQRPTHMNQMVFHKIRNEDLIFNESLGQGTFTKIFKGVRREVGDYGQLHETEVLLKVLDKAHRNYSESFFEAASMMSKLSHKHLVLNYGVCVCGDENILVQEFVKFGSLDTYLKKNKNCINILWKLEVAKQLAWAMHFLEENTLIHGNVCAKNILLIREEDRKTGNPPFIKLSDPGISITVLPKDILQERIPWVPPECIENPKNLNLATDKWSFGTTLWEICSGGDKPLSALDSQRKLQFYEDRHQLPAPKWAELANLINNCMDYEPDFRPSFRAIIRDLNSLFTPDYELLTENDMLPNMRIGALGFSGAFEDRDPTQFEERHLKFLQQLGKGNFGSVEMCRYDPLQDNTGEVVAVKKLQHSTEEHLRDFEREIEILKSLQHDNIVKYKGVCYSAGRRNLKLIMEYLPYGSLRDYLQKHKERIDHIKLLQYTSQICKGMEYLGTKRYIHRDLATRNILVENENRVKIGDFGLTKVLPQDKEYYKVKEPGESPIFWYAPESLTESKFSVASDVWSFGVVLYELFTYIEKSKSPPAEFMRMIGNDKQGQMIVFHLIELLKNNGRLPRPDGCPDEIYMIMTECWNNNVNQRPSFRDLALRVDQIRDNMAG

[10] = biological target: Serine/threonine-protein kinase STK11 (Homo sapiens, UniProt Q15831); experiment: Inhibition of human wild type LKB1 using RB-CTF as substrate preincubated for 2 hrs followed by ATP addition and measured every 2 mins for […] by spectrophotometric analysis
[11] = biological target: MAP kinase-activated protein kinase 2 (Homo sapiens, UniProt P49137); experiment: Inhibition of human wild type MAPKAPK2 using RBER-CHKtide as substrate preincubated for 2 hrs followed by ATP addition and measured every 2 mins for […] by spectrophotometric analysis
[12] = biological target: Dual specificity mitogen-activated protein kinase kinase 1 (Homo sapiens, UniProt Q02750); experiment: Inhibition of human wild type MEK1 using ERK2-KR as substrate preincubated for 2 hrs followed by ATP addition and measured every 2 mins for […] by spectrophotometric analysis
Sequence of Dual specificity mitogen-activated protein kinase kinase 1 (Q02750 whole entry): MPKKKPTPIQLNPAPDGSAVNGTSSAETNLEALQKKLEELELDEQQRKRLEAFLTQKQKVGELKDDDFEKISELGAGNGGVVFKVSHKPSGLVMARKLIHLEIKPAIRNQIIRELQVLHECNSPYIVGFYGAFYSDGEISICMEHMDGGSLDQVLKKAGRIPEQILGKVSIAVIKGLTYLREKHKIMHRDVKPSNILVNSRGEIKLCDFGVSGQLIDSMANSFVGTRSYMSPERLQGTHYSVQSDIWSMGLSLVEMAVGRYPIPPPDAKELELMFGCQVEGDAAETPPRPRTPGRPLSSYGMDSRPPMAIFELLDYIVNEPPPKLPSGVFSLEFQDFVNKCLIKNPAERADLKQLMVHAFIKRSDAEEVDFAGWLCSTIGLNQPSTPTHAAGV

[13] = biological target: Serine/threonine-protein kinase NLK (Homo sapiens, UniProt Q9UBE8); experiment: Inhibition of human wild type NLK using RBER-GSK3([…]-[…]) as substrate preincubated for 2 hrs followed by ATP addition and measured every 2 mins for […] by spectrophotometric analysis
[14] = biological target: Serine/threonine-protein kinase TBK1 (Homo sapiens, UniProt Q9UHD2); experiment: Inhibition of human wild type TBK1 using Casein as substrate preincubated for 2 hrs followed by ATP addition and measured every 2 mins for […] by spectrophotometric analysis
[15] = biological target: Wee1-like protein kinase (Homo sapiens, UniProt P30291); experiment: Inhibition of human wild type WEE1 using Poly(Ala,Glu,Lys,Tyr)6:2:5:1 as substrate preincubated for 2 hrs followed by ATP addition and measured every 2 mins for […] by spectrophotometric analysis
Sequence of Wee1-like protein kinase (P30291 whole entry): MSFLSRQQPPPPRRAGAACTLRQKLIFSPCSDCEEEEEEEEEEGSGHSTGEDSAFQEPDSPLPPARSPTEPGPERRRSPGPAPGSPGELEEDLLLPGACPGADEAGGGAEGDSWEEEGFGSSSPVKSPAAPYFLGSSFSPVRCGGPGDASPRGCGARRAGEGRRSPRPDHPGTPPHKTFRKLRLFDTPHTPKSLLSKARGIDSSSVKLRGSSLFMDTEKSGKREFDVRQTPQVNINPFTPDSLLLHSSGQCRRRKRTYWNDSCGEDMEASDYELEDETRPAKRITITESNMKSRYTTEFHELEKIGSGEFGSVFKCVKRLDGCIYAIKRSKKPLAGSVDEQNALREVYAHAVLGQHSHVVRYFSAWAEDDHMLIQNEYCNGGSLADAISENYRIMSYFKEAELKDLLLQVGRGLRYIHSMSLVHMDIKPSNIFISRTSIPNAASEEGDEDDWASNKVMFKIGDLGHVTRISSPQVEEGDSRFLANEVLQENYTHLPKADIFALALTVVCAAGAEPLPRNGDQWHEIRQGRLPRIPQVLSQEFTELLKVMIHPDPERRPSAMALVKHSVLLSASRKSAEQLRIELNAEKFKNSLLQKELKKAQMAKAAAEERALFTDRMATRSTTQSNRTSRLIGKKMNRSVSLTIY

[16] = Toxicity in Balb/c mouse assessed as hindlimb paralysis; settings: in vivo
[17] = tested on: Leukemia cell; experiment: Cytotoxicity against human Leukemia cell assessed as reduction in cell viability measured after 72 hrs by MTT assay; type: functional, cell-based
[18] = biological target: Tyrosine-protein kinase ABL1 (Homo sapiens, UniProt P00519); settings: Sf9, time 2.0 hrs

IC50 [1]: 70 nM
IC50 [2]: 670 nM
IC50 [3]: 290 nM
IC50 [4]: > 1000 nM
IC50 [5]: > 1000 nM
IC50 [6]: > 1000 nM
IC50 [7]: > 1000 nM
IC50 [8]: > 1000 nM
IC50 [9]: > 1000 nM
IC50 [10]: > 1000 nM
IC50 [11]: > 1000 nM
IC50 [12]: > 1000 nM
IC50 [13]: > 1000 nM
IC50 [14]: > 1000 nM
IC50 [15]: > 1000 nM
Kdiss [18]: 0.002 min⁻¹
Structure (SMILES): CNC(=O)c1cc(Oc2ccc(NC(=O)Nc3cc(C(C)(C)C)nn3-c3ccc4ncccc4c3)c(F)c2)ccn1 [REBASTINIB]
Activity [16]: Toxic
Activity [17]: Active
